Experimental data from ChEMBL document CHEMBL1201862, “PubChem BioAssay data set” (2004).
The source made the active and inactive calls.

Legend:
Genome polyprotein = Genome polyprotein (dengue virus type 2, UniProt P29990); assay: flavivirus cap methylation enzyme inhibition – biochemical, confirmation dose response, primary screen (AID 588689); format: functional
Protein RecA = target: T1, Protein RecA (Mycobacterium tuberculosis, UniProt P9WHJ3); assay: Fluorescence Cell-Free Homogeneous Dose Retest to Identify Inhibitors of RecA-Intein Splicing Activity. [Related pubchem assays (depositor defined):AID2097, AID2223, AID489010, AID492950]; format: functional
T1 sequence (P9WHJ3 whole entry): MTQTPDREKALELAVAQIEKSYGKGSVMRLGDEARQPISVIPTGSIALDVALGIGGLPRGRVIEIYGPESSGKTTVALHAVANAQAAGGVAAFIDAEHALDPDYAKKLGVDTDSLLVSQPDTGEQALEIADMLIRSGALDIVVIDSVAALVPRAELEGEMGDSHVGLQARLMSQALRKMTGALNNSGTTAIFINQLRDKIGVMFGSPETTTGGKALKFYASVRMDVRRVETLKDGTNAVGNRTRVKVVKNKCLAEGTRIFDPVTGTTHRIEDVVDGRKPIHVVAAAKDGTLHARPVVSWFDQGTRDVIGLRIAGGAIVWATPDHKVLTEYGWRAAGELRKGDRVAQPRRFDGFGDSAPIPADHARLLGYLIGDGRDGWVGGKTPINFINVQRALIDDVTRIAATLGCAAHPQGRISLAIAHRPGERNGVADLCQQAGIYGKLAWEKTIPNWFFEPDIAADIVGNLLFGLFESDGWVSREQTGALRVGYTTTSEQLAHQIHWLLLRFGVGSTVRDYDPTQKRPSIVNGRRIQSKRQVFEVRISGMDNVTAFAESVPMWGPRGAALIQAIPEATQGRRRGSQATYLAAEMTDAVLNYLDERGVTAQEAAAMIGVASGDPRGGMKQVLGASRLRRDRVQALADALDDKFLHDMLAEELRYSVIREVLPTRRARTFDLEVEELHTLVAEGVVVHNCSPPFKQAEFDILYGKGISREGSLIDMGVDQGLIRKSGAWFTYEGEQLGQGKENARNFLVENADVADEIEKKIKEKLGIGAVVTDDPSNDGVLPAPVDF

[1] = target: T2, Replicative DNA helicase DnaB (Mycobacterium tuberculosis, UniProt P9WMR3); assay: DnaB intein splicing inhibitors, dose response, biochemical, cell-free fluorescence (AID 449749); format: functional
T2 sequence (P9WMR3 whole entry): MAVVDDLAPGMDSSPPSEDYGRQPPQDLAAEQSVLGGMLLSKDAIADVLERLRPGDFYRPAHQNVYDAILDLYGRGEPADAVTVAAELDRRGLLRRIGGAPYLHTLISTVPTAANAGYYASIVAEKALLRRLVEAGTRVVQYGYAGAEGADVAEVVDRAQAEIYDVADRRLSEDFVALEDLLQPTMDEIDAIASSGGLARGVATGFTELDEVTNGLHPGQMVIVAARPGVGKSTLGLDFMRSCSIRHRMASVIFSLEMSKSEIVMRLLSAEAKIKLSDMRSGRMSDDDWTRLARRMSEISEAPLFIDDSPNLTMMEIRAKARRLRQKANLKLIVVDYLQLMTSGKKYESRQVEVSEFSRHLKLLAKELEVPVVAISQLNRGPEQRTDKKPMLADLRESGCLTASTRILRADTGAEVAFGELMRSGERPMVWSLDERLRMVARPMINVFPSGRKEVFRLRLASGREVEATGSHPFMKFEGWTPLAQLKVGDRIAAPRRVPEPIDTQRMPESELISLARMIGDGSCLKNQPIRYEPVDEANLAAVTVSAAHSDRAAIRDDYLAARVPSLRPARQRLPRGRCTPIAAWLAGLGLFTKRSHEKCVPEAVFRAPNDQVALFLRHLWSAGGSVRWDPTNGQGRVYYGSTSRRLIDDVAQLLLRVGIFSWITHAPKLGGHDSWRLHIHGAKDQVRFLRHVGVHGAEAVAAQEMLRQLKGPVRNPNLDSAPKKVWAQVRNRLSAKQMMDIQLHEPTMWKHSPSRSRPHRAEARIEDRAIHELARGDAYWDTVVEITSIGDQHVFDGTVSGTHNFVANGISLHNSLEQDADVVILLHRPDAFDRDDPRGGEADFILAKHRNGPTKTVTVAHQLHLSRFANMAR

[2] = target: Hepatocyte nuclear factor 4-alpha (Homo sapiens, UniProt P41235); format: functional, cell-based;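 also: biochemical luminescence-based dose-response counterscreen measuring inhibition of HNF4 dimerization, run alongside a screen for blockers of ABHD5–perilipin-5 interaction; split luciferase complementation of HNF4 fusion proteins in cell lysate measuring dimerization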
[3] = Shn3 3'UTR reporter signal decrease – cell-based, Clone20 osteoblasts, firefly luciferase, cherry-pick, set 2, Schnurri-3 inhibitor project, dose response (AID 720490); format: functional;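 also: actives lower the luminescence signal as inhibitors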
[4] = target: Potassium voltage-gated channel subfamily KQT member 2 (Rattus norvegicus, UniProt O88943, W236L); assay: potentiation of rat KCNQ2 current – cell-based, automated electrophysiology, mechanism study for KCNQ2 potentiator project, dose response (AID 2603); format: functional
[5] = reduction of Shn3 3'UTR-driven luciferase in osteoblasts – cell-based, Clone20 osteoblasts, firefly luciferase, cherry-picked, dose response (AID 624132); format: functional;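 also: firefly luciferase luminescence from reporter carrying the Shn3 3'UTR in osteoblasts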
[6] = target: Peroxisome proliferator-activated receptor gamma/Nuclear receptor coactivator 2 (Homo sapiens, UniProt P37231); assay: TR-FRET dose response biochemical High Throughput Screening assay for agonists of the steroid receptor coactivator 2 (SRC-2) recruitment by the peroxisome proliferator-activated receptor gamma (PPAR gamma): non-selective agonists. [Related pubchem assays: 1297, 1032 ]; format: functional
[7] = target: Peroxisome proliferator-activated receptor gamma/Nuclear receptor coactivator 1 (Homo sapiens, UniProt P37231); assay: TR-FRET dose response biochemical High Throughput Screening assay for agonists of the steroid receptor coactivator 1 (SRC-1) recruitment by the peroxisome proliferator-activated receptor gamma (PPAR gamma): non-selective agonists. [Related pubchem assays (depositor defined):AID1300, AID1808, AID504735, AID631]; format: protein assay
[8] = target: T3, Mannose-6-phosphate isomerase (Homo sapiens, UniProt P34949); assay: MPI inhibition at elevated mannose 6-phosphate – biochemical, fluorescence intensity, high mannose 6-phosphate, primary screen (AID 1220)
T3 sequence (P34949 whole entry): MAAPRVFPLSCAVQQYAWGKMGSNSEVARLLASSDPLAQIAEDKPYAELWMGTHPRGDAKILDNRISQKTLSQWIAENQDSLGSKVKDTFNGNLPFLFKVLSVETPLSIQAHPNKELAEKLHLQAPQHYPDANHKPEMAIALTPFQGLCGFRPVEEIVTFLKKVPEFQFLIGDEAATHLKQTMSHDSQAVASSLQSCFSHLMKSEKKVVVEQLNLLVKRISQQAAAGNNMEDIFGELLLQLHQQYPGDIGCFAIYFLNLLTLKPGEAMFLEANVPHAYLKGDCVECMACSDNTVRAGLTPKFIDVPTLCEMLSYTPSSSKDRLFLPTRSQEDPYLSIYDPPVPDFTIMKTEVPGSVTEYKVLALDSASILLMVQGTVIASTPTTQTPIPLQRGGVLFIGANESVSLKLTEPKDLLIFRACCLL

[9] = target: Peroxisome proliferator-activated receptor gamma/Nuclear receptor coactivator 3 (Homo sapiens, UniProt P37231); assay: TR-FRET dose response biochemical High Throughput Screening assay for agonists of the steroid receptor coactivator 3 (SRC-3) recruitment by the peroxisome proliferator-activated receptor gamma (PPAR gamma): non-selective agonists. [Related pubchem assays: 1301 (Confirmation screen.), 1048 (Primary screen.)]; format: functional
[10] = target: Glucose-6-phosphate 1-dehydrogenase (Homo sapiens, UniProt P11413); assay: inhibition of Homo sapiens G6PD, dose series – biochemical, fluorescence, selectivity assay for P. falciparum G6PD inhibitor project, dose response (AID 504792); format: functional
[11] = target: T3, Mannose-6-phosphate isomerase; assay: MPI enzyme activity inhibition – biochemical, fluorescence intensity, coupled assay, primary screen (AID 1209)
HEK293 [12] = assay: NOD2 signaling inhibitors in MDP-stimulated cells, cell-based, uHTS, luminescence (AID 2001); format: functional; conditions: Homo sapiens
HEK293 [13] = assay: cells; format: functional, cell-based; conditions: Homo sapiens
HEK293 [14] = assay: cells; format: functional, cell-based; conditions: Homo sapiens; remark: listed apart in the source
HEK293 [15] = assay: inhibition of NOD1-driven NF-kB reporter – cell-based, luminescence, uHTS, primary screen (AID 1578); format: functional; conditions: Homo sapiens
[16] = NIH-3T3 fibroblast cytotoxicity, dose response, cytotoxicity control, cell-based, fluorescence, Alamar Blue, secondary assay (AID 2327); format: functional;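 also: NIH-3T3 mouse fibroblasts cultured with fluconazole at 8 µg/mL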
[17] = target: T4, Neuropeptide Y receptor type 2 (Homo sapiens, UniProt P49146); assay: IC50 for human NPY-Y2 blockade – cell-based, counter-screen for NPY-Y1 antagonist project, dose response (AID 1278); format: functional
[18] = target: T5, Neuropeptide Y receptor type 1 (Homo sapiens, UniProt P25929); assay: IC50 of human NPY-Y1 blockers – cell-based, dose response (AID 1277); format: functional
HEK293 [19] = assay: cells; format: functional, cell-based; conditions: Homo sapiens; remark: listed apart in the source
[20] = target: Nucleotide-binding oligomerization domain-containing protein 2 (Homo sapiens, UniProt Q9HC29); assay: inhibition of NOD2-driven NF-kB reporter – cell-based, luminescence, uHTS, HEK293 (AID 1566); format: functional
[21] = target: T4, Neuropeptide Y receptor type 2; format: functional, cell-based
[22] = target: T5, Neuropeptide Y receptor type 1; format: functional
[23] = target: Luciferin 4-monooxygenase (Photinus pyralis, UniProt P08659); assay: inhibition of purified Photinus pyralis luciferase – biochemical, luminescence, dose response (AID 1891)
[24] = Luminescence Cell-Based Dose Confirmation HTS to Identify Inhibitors of Platelet Dense Granule Release. [Related pubchem assays: 1663 (Primary HTS), 1678 (Summary of Project)]; format: functional
[25] = system: Streptococcus sp. 'group A'; assay: Streptococcus pyogenes SK(-)GAS viability under kanamycin – luminescence, BacTiterGlo, confirmation, counter-screen for streptokinase expression inhibitor project, dose response (AID 1900); format: functional, organism-based
Streptococcus = assay: GAS UMAA2166 growth inhibition – luminescence, BacTiterGlo, counter-screen for streptokinase expression inhibitor project, dose response (AID 1915); format: functional, organism-based;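 also: potency for reduction of bacterial viability or growth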
Streptokinase A = target: T6, Streptokinase A (Streptococcus pyogenes serotype M1, UniProt P10520); assay: viability-normalized secreted streptokinase activity reduction – plasminogen activation absorbance, OD405, dose response (AID 1914); format: functional, Streptococcus pyogenes M1 GAS;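 also: secreted streptokinase activity via plasminogen activation per viability signal from cell pellet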
T6 sequence (P10520 whole entry): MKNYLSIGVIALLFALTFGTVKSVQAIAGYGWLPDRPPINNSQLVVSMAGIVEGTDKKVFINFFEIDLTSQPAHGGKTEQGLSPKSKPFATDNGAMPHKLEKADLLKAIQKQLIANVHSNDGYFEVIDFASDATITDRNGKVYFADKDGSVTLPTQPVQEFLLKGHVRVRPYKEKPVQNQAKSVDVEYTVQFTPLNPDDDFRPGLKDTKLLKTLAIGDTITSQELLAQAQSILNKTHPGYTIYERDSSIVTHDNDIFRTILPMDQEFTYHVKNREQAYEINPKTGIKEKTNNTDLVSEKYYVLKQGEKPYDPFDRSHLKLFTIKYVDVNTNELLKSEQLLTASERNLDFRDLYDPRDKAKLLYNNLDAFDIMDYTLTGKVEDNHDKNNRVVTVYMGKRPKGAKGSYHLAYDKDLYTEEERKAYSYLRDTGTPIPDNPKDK

[26] = mitochondrial function rescue without frataxin homolog – Friedreich's ataxia, plus single-dose screen, dose response (AID 1465); format: functional;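 also: yeast depleted of Yfh1p frataxin homolog grown on glycerol needing respiration; WST-1 tetrazolium dye reduction as measure of cellular dehydrogenase metabolic activity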
HeLa = assay: Cytotoxicity counterscreen assay for transcriptional activators of heat shock protein 70 (Hsp70). [Related pubchem assays: 1203, 1252 ]; format: functional; conditions: Homo sapiens;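 also: cells exposed to compound for 16 hours before readout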
[27] = target: 5-hydroxytryptamine receptor 1E (Homo sapiens, UniProt P28566); assay: Counterscreen assay for S1P3 antagonists: Dose response cell-based high throughput screening assay to identify antagonists of the 5-Hydroxytryptamine Receptor Subtype 1E (5HT1E). [Related pubchem assays: 1429, 485 ]; format: functional
[28] = target: Sphingosine 1-phosphate receptor 3 (Homo sapiens, UniProt Q99500); assay: Dose response cell-based high throughput screening assay for antagonists of the Sphingosine 1-Phosphate Receptor 3 (S1P3). [Related pubchem assays: 1429, 485 ]; format: functional
[29] = microbe, parasite or virus in culture; format: functional; conditions: Mycobacterium tuberculosis
[30] = A High Throughput Confirmatory Assay used to Identify Novel Compounds that Inhibit Mycobacterium Tuberculosis in the absence of Glycerol.; format: functional

T4 sequence (P49146 whole entry): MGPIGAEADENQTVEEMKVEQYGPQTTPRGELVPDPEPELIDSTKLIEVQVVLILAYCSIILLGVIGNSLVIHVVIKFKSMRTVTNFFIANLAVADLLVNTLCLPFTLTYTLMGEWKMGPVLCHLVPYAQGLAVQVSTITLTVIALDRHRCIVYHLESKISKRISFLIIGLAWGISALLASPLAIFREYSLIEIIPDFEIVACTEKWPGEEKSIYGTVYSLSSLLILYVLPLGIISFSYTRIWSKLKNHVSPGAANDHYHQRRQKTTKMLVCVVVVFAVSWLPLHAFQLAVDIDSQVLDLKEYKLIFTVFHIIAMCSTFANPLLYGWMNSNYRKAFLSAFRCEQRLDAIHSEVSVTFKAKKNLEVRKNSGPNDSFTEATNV
T5 sequence (P25929 whole entry): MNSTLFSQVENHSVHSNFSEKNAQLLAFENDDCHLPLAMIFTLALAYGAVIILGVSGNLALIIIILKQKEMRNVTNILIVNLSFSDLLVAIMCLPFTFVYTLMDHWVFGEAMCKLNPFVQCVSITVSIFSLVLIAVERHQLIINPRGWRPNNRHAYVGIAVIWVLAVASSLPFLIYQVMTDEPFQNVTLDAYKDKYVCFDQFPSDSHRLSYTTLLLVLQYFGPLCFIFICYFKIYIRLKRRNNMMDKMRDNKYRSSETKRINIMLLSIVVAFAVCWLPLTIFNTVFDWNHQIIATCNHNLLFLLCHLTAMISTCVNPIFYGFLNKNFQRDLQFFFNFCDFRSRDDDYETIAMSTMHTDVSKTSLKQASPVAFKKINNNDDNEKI
Genome polyprotein, sequence (P29990 2492-3391 limits assumed): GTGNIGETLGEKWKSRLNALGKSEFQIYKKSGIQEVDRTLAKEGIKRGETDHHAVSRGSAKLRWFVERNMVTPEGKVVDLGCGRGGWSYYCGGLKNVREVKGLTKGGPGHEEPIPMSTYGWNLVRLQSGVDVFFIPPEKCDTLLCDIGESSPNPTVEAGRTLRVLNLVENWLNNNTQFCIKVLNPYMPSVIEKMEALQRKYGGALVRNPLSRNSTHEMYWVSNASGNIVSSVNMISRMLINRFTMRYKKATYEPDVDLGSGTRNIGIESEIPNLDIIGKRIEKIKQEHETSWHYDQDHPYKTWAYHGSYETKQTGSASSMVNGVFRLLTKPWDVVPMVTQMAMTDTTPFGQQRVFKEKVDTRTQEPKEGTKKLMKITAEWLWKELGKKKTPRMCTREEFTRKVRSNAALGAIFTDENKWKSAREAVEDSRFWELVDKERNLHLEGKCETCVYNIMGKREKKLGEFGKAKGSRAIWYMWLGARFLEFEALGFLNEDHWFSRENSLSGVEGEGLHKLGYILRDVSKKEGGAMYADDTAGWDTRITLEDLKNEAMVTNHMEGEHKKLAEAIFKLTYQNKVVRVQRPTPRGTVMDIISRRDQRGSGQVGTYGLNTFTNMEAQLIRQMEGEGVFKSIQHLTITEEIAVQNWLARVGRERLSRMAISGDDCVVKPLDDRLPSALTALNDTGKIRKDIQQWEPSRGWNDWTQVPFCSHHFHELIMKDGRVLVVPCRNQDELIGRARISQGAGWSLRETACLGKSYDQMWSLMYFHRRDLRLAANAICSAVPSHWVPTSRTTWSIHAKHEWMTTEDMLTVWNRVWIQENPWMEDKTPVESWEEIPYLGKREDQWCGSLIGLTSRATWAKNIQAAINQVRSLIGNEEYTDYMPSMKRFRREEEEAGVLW
Nucleotide-binding oligomerization domain-containing protein 2, sequence (Q9HC29 whole entry, the tested form may be a part): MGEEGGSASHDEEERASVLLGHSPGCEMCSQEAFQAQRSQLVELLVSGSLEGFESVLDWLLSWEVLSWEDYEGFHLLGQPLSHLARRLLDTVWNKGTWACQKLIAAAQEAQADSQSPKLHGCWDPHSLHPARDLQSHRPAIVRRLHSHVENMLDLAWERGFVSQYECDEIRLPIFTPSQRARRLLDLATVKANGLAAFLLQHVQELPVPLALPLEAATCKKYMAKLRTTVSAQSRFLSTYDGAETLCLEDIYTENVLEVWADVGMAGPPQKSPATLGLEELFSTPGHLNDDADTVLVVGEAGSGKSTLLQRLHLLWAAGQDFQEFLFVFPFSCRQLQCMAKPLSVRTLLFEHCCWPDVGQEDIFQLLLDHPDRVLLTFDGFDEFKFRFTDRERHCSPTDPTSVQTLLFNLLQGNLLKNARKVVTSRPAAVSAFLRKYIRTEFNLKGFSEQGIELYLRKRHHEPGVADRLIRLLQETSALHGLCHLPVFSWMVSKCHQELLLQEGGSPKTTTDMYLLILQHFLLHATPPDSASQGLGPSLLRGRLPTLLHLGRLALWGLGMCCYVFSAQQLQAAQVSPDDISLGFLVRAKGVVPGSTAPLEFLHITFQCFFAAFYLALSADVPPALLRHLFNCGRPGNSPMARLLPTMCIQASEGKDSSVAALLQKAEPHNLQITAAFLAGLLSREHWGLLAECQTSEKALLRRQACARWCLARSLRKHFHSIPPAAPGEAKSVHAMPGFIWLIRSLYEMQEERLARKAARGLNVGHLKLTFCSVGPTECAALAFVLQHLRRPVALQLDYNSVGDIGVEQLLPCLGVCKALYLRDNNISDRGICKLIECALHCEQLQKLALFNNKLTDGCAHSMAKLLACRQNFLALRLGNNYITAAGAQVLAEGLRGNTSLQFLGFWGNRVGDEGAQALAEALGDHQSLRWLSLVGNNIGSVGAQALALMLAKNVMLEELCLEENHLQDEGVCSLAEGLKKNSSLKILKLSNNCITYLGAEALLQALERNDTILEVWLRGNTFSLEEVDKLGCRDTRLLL
Luciferin 4-monooxygenase, sequence (P08659 whole entry): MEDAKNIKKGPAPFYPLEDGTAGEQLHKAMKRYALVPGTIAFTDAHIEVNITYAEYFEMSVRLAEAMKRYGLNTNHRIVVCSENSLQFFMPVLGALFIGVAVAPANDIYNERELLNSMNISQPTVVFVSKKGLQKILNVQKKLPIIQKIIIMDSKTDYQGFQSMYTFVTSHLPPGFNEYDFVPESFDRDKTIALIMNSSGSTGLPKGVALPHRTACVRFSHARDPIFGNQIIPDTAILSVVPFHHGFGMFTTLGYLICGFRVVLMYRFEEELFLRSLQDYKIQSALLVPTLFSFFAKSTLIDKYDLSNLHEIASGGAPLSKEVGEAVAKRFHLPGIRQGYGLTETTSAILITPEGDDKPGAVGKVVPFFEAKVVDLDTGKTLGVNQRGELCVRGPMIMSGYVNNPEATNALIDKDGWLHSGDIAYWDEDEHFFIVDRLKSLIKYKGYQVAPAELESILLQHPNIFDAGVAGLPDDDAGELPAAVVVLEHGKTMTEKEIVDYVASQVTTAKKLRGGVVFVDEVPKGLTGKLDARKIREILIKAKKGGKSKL
Sphingosine 1-phosphate receptor 3, sequence (Q99500 whole entry): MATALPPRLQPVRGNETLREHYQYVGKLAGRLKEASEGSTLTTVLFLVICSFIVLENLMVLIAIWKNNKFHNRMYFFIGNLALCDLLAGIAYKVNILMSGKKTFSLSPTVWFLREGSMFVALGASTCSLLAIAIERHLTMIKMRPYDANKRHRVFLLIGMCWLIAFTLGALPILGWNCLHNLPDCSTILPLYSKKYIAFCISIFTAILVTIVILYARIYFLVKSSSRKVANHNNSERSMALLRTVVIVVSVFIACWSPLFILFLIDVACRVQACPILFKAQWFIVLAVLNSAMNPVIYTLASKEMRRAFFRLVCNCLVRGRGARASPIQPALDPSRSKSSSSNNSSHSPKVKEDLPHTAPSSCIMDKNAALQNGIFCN
Potassium voltage-gated channel subfamily KQT member 2, sequence (O88943 whole entry W236L): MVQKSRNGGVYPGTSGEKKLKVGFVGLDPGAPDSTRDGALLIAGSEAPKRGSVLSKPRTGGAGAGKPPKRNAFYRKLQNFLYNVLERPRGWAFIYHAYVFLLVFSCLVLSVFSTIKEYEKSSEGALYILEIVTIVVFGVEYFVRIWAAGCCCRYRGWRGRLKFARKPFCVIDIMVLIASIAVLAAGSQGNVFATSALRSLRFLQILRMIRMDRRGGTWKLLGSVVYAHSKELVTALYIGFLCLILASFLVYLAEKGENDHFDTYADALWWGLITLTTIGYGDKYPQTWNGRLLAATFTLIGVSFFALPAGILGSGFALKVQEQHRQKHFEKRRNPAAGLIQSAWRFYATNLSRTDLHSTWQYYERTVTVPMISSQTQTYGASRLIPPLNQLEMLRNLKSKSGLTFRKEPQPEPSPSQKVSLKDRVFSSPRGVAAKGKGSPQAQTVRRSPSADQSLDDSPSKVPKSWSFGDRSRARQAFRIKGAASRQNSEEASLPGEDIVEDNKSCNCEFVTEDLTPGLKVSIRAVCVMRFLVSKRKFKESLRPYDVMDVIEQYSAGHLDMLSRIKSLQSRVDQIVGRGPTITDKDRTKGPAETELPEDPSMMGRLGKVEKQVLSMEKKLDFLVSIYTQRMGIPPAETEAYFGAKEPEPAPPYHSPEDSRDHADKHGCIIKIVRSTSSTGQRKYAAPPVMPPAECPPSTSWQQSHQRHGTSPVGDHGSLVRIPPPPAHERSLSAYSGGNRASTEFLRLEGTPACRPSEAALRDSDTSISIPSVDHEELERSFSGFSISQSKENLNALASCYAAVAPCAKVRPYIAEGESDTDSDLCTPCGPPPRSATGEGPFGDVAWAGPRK
5-hydroxytryptamine receptor 1E, sequence (P28566 whole entry): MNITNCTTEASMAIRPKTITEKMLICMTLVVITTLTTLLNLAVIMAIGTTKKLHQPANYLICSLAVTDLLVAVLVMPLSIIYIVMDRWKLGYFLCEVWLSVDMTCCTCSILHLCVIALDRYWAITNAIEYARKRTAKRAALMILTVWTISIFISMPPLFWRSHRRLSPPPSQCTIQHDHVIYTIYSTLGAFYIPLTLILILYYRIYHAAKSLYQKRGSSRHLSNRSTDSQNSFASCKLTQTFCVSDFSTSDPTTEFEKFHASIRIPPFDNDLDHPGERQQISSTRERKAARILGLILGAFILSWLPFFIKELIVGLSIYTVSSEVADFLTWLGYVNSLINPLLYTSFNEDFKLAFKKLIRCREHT

SMILES: CCSc1nnc(NC(=O)c2nc(S(=O)(=O)Cc3ccc(F)cc3)ncc2Cl)s1
- IC50 (Genome polyprotein): 41.5 µM (active)
- EC50 (Protein RecA): 1.08 µM (inconclusive)
- AC50 [1]: 0.419 µM (inconclusive)
- IC50 [2]: 5.51 µM (active)
- AC50 [3]: 1.68 µM (active)
- EC50 [4]: 38.9 µM (active)
- AC50 [5]: 4.96 µM (active)

SMILES: Cc1cccc(-n2c(=S)[nH]c3sc4c(c3c2=O)CCc2ccccc2-4)c1
- EC50 [6]: > 79.4 µM (not active)
- EC50 [7]: > 79.4 µM (inactive)
- IC50 [8]: > 50 µM (not active)
- EC50 [9]: > 79.4 µM (not active)
- IC50 [10]: > 80 µM (inactive)
- IC50 [11]: 36.3 µM (active)

SMILES: CC1(C)CC(N2CCCCCC2)=CC(=[N+]2CCCC2)C1
- IC50 (HEK293 [12]): 16.4 µM (inactive)
- IC50 (HEK293 [13]): 8.01 µM (active)
- IC50 (HEK293 [14]): > 20 µM (inactive)
- EC50 (HEK293 [15]): 4.99 µM (active)
- EC50 [16]: > 150 µM (inactive)
- IC50 [17]: > 35 µM (not active)
- IC50 [18]: > 35 µM (not active)
- IC50 (HEK293 [19]): > 20 µM (inactive)
- EC50 [20]: 17.5 µM (active)

SMILES: COc1cc(/C=N/NC(N)=O)ccc1OCC(=O)Nc1ccc(C)c(C)c1
- IC50 [21]: 9.83 µM (active)
- IC50 [22]: > 35 µM (not active)
- EC50 [23]: > 112 µM (not active)
- EC50 [24]: 11.4 µM (active)

SMILES: N#C/C(=N\Nc1ccc(S(=O)(=O)N2CCc3ccccc32)cc1)C(N)=S
- EC50 [25]: 14.5 µM (active)
- EC50 (Protein RecA): 31.7 µM (active)
- AC50 [1]: 2.32 µM (active)
- EC50 (Streptococcus): 40 µM (active)
- EC50 (Streptokinase A): > 150 µM (not active)
- EC50 [26]: > 100 µM (active)

SMILES: CC(CC1CC(C)(C)OC1=O)C(=O)Nc1ccc([N+](=O)[O-])cc1 (configuration not stated)
- CC50 (HeLa): > 99 µM (not active)

SMILES: Cc1ccc(NC(=O)C(c2ccccc2)C2CCCC2)cc1 (configuration not stated)
- IC50 [27]: 7.06 µM (active)
- IC50 [28]: 2.43 µM (active)

SMILES: CC(C)NC(=S)N/N=C/c1c[nH]c2ccccc12
- CC50 [29]: > 40 µM (active)
- IC50 [30]: > 100 µM (active)
